# Results: ChEMBL document CHEMBL1201862, “PubChem BioAssay data set” (2004)
#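 Exposure lasted 48 hours, with cells grown in 96-well plates and compounds tested at five concentrations. GI50: concentration for 50% inhibition of growth.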 Active and inactive are the calls of the source. Cut-off read from the data, not from the text of the source: active = GI50 up to about 1.1 µM and inactive = higher.
# Experiments:
# Experiment in all cases: NCI anticancer screen, dose series, 48 h
# [1] = test system: HCT-116
# [2] = test system: HOP-92
# [3] = test system: HT-29
# [4] = test system: OVCAR-4
# [5] = test system: NCI-H226
# [6] = test system: ACHN
# [7] = test system: UACC-257
# [8] = test system: BT-549
# [9] = test system: SK-OV-3
# [10] = test system: MDA-N
# [11] = test system: A549
# [12] = test system: SF-539
# [13] = test system: MCF7
# [14] = test system: OVCAR-8
# [15] = test system: SN12C
# [16] = test system: SW-620
# [17] = test system: MDA-MB-435
# [18] = test system: MOLT-4
# [19] = test system: Malme-3M
# [20] = test system: NCI-H23
# [21] = test system: HL-60
# [22] = test system: OVCAR-3
# [23] = test system: SK-MEL-28
# [24] = test system: SK-MEL-5
# [25] = test system: SR
# [26] = test system: SF-268
# [27] = test system: RXF 393
# [28] = test system: 786-0
# [29] = test system: SK-MEL-2
# [30] = test system: COLO 205
# [31] = test system: T47D
# [32] = test system: Hs-578T
# [33] = test system: CAKI-1
# [34] = test system: UACC-62
# [35] = test system: SNB-75
# [36] = test system: A498
# [37] = test system: UO-31
# [38] = test system: KM12
# [39] = test system: NCI/ADR-RES
# [40] = test system: K562
# [41] = test system: MDA-MB-231
# [42] = test system: IGROV-1
# [43] = test system: CCRF-CEM
# [44] = test system: RPMI-8226
# [45] = test system: NCI-H522
# [46] = test system: DU-145
# [47] = test system: M14
# [48] = test system: TK-10
# [49] = test system: HOP-62
# [50] = test system: HCC 2998
# [51] = test system: NCI-H460
# [52] = test system: SNB-19
# [53] = test system: OVCAR-5
# [54] = test system: PC-3
# [55] = test system: U-251
# [56] = test system: HCT-15
# [57] = test system: EKVX
# [58] = test system: LOX IMVI
# [59] = test system: SF-295
smiles,measurement,setting,value
COc1ccc(/C=C2\N=C(c3ccccc3)N(NC3=NC(=O)CC(=O)N3)C2=O)cc1,GI50,[1],> 100 µM (inactive)
same,GI50,[2],> 100 µM (inactive)
same,GI50,[3],> 100 µM (inactive)
same,GI50,[4],> 100 µM (inactive)
same,GI50,[5],> 100 µM (inactive)
same,GI50,[6],> 100 µM (inactive)
same,GI50,[7],> 100 µM (inactive)
same,GI50,[8],> 100 µM (inactive)
same,GI50,[9],> 100 µM (inactive)
same,GI50,[10],> 100 µM (inactive)
same,GI50,[11],> 100 µM (inactive)
same,GI50,[12],> 100 µM (inactive)
same,GI50,[13],20.4 µM (inactive)
same,GI50,[14],> 100 µM (inactive)
same,GI50,[15],> 100 µM (inactive)
same,GI50,[16],> 100 µM (inactive)
same,GI50,[17],> 100 µM (inactive)
same,GI50,[18],> 100 µM (inactive)
same,GI50,[19],> 100 µM (inactive)
same,GI50,[20],> 100 µM (inactive)
same,GI50,[21],> 100 µM (inactive)
same,GI50,[22],> 100 µM (inactive)
same,GI50,[23],> 100 µM (inactive)
same,GI50,[24],> 100 µM (inactive)
same,GI50,[25],> 100 µM (inactive)
same,GI50,[26],> 100 µM (inactive)
same,GI50,[27],> 100 µM (inactive)
same,GI50,[28],> 100 µM (inactive)
same,GI50,[29],> 100 µM (inactive)
same,GI50,[30],> 100 µM (inactive)
same,GI50,[31],> 100 µM (inactive)
same,GI50,[32],> 100 µM (inactive)
same,GI50,[33],> 100 µM (inactive)
same,GI50,[34],> 100 µM (inactive)
same,GI50,[35],> 100 µM (inactive)
same,GI50,[36],> 100 µM (inactive)
same,GI50,[37],> 100 µM (inactive)
same,GI50,[38],> 100 µM (inactive)
same,GI50,[39],> 100 µM (inactive)
same,GI50,[40],> 100 µM (inactive)
same,GI50,[41],> 100 µM (inactive)
same,GI50,[42],> 100 µM (inactive)
same,GI50,[43],39.2 µM (inactive)
same,GI50,[44],> 100 µM (inactive)
same,GI50,[45],> 100 µM (inactive)
same,GI50,[46],> 100 µM (inactive)
same,GI50,[47],> 100 µM (inactive)
same,GI50,[48],> 100 µM (inactive)
same,GI50,[49],> 100 µM (inactive)
same,GI50,[50],> 100 µM (inactive)
same,GI50,[51],> 100 µM (inactive)
same,GI50,[52],> 100 µM (inactive)
same,GI50,[53],> 100 µM (inactive)
same,GI50,[54],> 100 µM (inactive)
same,GI50,[55],> 100 µM (inactive)
same,GI50,[56],> 100 µM
N#CC1(C#N)C(C#N)(C#N)C1(C#N)C(N)=O,GI50,[1],> 100 µM (inactive)
same,GI50,[2],> 100 µM (inactive)
same,GI50,[3],> 100 µM (inactive)
same,GI50,[4],> 100 µM (inactive)
same,GI50,[5],> 100 µM (inactive)
same,GI50,[6],> 100 µM (inactive)
same,GI50,[7],> 100 µM (inactive)
same,GI50,[57],> 100 µM (inactive)
same,GI50,[8],> 100 µM (inactive)
same,GI50,[9],> 100 µM (inactive)
same,GI50,[10],> 100 µM (inactive)
same,GI50,[11],> 100 µM (inactive)
same,GI50,[13],> 100 µM (inactive)
same,GI50,[14],> 100 µM (inactive)
same,GI50,[15],> 100 µM (inactive)
same,GI50,[16],> 100 µM (inactive)
same,GI50,[17],> 100 µM (inactive)
same,GI50,[18],> 100 µM (inactive)
same,GI50,[19],> 100 µM (inactive)
same,GI50,[20],> 100 µM (inactive)
same,GI50,[21],> 100 µM (inactive)
same,GI50,[23],> 100 µM (inactive)
same,GI50,[24],> 100 µM (inactive)
same,GI50,[25],> 100 µM (inactive)
same,GI50,[26],> 100 µM (inactive)
same,GI50,[27],> 100 µM (inactive)
same,GI50,[28],> 100 µM (inactive)
same,GI50,[29],> 100 µM (inactive)
same,GI50,[30],> 100 µM (inactive)
same,GI50,[31],> 100 µM (inactive)
same,GI50,[32],> 100 µM (inactive)
same,GI50,[33],> 100 µM (inactive)
same,GI50,[34],> 100 µM (inactive)
same,GI50,[36],> 100 µM (inactive)
same,GI50,[37],> 100 µM (inactive)
same,GI50,[38],> 100 µM (inactive)
same,GI50,[39],> 100 µM (inactive)
same,GI50,[40],> 100 µM (inactive)
same,GI50,[41],> 100 µM (inactive)
same,GI50,[42],> 100 µM (inactive)
same,GI50,[58],> 100 µM (inactive)
same,GI50,[43],> 100 µM (inactive)
same,GI50,[44],> 100 µM (inactive)
same,GI50,[45],> 100 µM (inactive)
same,GI50,[46],> 100 µM (inactive)
same,GI50,[47],> 100 µM (inactive)
same,GI50,[48],> 100 µM (inactive)
same,GI50,[59],> 100 µM (inactive)
same,GI50,[49],> 100 µM (inactive)
same,GI50,[50],> 100 µM (inactive)
same,GI50,[51],> 100 µM (inactive)
same,GI50,[52],> 100 µM (inactive)
same,GI50,[53],> 100 µM (inactive)
same,GI50,[54],> 100 µM (inactive)
same,GI50,[55],> 100 µM (inactive)
same,GI50,[56],> 100 µM
CC1=CC(=O)C2=C(C)CCC3C(C)C(=O)OC3C12 (centres undefined),GI50,[1],> 100 µM (inactive)
same,GI50,[2],> 100 µM (inactive)
same,GI50,[3],> 100 µM (inactive)
same,GI50,[4],> 100 µM (inactive)
same,GI50,[5],> 100 µM (inactive)
same,GI50,[6],> 100 µM (inactive)
same,GI50,[7],> 100 µM (inactive)
same,GI50,[57],> 100 µM (inactive)
same,GI50,[8],> 100 µM (inactive)
same,GI50,[9],> 100 µM (inactive)
same,GI50,[10],> 100 µM (inactive)
same,GI50,[11],> 100 µM (inactive)
same,GI50,[12],> 100 µM (inactive)
same,GI50,[13],> 100 µM (inactive)
same,GI50,[14],> 100 µM (inactive)
same,GI50,[15],> 100 µM (inactive)
same,GI50,[16],> 100 µM (inactive)
same,GI50,[17],> 100 µM (inactive)
same,GI50,[18],> 100 µM (inactive)
same,GI50,[19],> 100 µM (inactive)
same,GI50,[20],> 100 µM (inactive)
same,GI50,[21],> 100 µM (inactive)
same,GI50,[22],> 100 µM (inactive)
same,GI50,[23],> 100 µM (inactive)
same,GI50,[24],> 100 µM (inactive)
same,GI50,[25],48 µM (inactive)
same,GI50,[26],> 100 µM (inactive)
same,GI50,[27],> 100 µM (inactive)
same,GI50,[28],> 100 µM (inactive)
same,GI50,[29],> 100 µM (inactive)
same,GI50,[30],> 100 µM (inactive)
same,GI50,[31],> 100 µM (inactive)
same,GI50,[32],> 100 µM (inactive)
same,GI50,[33],> 100 µM (inactive)
same,GI50,[34],> 100 µM (inactive)
same,GI50,[36],> 100 µM (inactive)
same,GI50,[37],> 100 µM (inactive)
same,GI50,[38],> 100 µM (inactive)
same,GI50,[39],> 100 µM (inactive)
same,GI50,[41],> 100 µM (inactive)
same,GI50,[42],> 100 µM (inactive)
same,GI50,[58],> 100 µM (inactive)
same,GI50,[43],> 100 µM (inactive)
same,GI50,[44],> 100 µM (inactive)
same,GI50,[45],> 100 µM (inactive)
same,GI50,[46],> 100 µM (inactive)
same,GI50,[47],> 100 µM (inactive)
same,GI50,[48],> 100 µM (inactive)
same,GI50,[59],> 100 µM (inactive)
same,GI50,[49],> 100 µM (inactive)
same,GI50,[50],> 100 µM (inactive)
same,GI50,[51],> 100 µM (inactive)
same,GI50,[52],> 100 µM (inactive)
same,GI50,[53],> 100 µM (inactive)
same,GI50,[54],> 100 µM (inactive)
same,GI50,[55],> 100 µM (inactive)
same,GI50,[56],> 100 µM
